Test [1] deals with Pseudomonas aeruginosa MB5890 (CB1101, efflux-deleted). The test is described as follows: microbe, parasite or virus in culture. The test is classed as cell-based. The following applies: Pseudomonas aeruginosa, read-out: P. aeruginosa MB5890 efflux-del (MIC), MHII broth; * = some reduction of growth versus control at […].
Test [2] has as its system Escherichia coli MB5747 (LS 883, tolC). The test is described as follows: microbe, parasite or virus in culture. The note with it: Escherichia coli, read-out: E. coli LS883 tolC (MIC), MHII broth; * = some reduction of growth versus control at […]. In kind it is cell-based.
Test [3] deals with T1, S. aureus DnaE (DNA polymerase III α-subunit homolog from Staphylococcus aureus) (Staphylococcus aureus, UniProt Q5HF71).
T1 construct: SaDnaE (S. aureus DnaE residues 1-1065); 6xHis (N); made in house; host or cells: E. coli BL21-AI
T1 sequence (Q5HF71 1-1065): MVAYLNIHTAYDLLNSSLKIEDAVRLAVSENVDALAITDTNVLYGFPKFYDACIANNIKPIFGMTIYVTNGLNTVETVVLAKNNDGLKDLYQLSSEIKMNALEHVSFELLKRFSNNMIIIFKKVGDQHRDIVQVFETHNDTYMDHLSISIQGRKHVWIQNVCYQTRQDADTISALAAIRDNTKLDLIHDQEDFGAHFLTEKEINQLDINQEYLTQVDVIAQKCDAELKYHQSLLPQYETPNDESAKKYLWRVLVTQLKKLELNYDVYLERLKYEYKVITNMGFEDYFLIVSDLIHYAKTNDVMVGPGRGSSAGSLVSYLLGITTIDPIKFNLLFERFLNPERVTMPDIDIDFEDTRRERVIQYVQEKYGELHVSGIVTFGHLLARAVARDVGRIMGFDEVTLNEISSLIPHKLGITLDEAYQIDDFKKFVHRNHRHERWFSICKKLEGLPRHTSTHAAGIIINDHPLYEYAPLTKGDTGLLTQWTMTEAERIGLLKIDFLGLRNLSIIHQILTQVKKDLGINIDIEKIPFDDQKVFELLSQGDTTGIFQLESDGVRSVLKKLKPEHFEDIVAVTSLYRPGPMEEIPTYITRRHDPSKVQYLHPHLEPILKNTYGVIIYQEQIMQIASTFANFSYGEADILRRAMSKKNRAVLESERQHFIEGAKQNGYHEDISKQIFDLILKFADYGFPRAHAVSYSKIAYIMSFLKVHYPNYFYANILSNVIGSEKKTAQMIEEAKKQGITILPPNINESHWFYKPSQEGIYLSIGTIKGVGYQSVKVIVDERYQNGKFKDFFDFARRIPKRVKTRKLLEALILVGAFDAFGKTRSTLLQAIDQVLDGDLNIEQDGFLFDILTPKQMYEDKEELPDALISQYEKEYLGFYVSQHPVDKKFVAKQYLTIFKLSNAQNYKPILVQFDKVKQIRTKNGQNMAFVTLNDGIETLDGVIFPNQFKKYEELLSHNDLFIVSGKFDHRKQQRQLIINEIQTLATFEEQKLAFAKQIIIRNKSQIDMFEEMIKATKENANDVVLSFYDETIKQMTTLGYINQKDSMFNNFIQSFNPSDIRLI
The test is described as follows: biochemical. The test is classed as biochemical. The procedure, abridged: (§1)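 His-tagged E. coli DnaE (residues 1-1160, 0.8 μg/ml) or S. aureus DnaE (residues 1-1065, 0.05 μg/ml) incubated 30 min at 30° C. with activated calf thymus DNA, 0.025 mM dATP/dGTP/dCTP and 0.011 mM 3H-dTTP in Tris pH 7.5/Mg acetate. TCA-precipitated labelled DNA counted.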

Test [4] concerns the target T2, E. coli DnaE (DNA polymerase III α-subunit from Escherichia coli) (Escherichia coli, UniProt P10443).
T2 construct: EcDnaE (E. coli DnaE residues 1-1160); 6xHis (N); made in house; host or cells: E. coli BL21(DE3)
The test is described as follows: In vitro DnaE single enzyme assay (E. coli). The test is classed as biochemical. The procedure, abridged: as §1

The subject of test [5] is Streptococcus pneumoniae MB6357 (CL 2883). The test is described as follows: Nargenicin antibacterial assay (MIC), S. pneumoniae. The test is classed as cell-based. The note with it: Streptococcus pneumoniae, read-out: S. pneumoniae MB2883 (MIC), Isosensitest broth; * = some reduction of growth versus control at […].
Test [6] concerns Staphylococcus aureus MB6266 (MRSA COL). The test is described as follows: Nargenicin antibacterial assay (MIC), S. aureus. The following applies: Staphylococcus aureus, MRSA, read-out: S. aureus COL (MIC), MHII broth + 50% human serum; * = some reduction of growth versus control at […]. The test is classed as cell-based.
Setting [7] is: read-out: E. coli DnaE IC50 (converted).

In brackets after ≈: the same amount, converted by molar mass. Read-outs that look alike come from different tables or passages of the source.

A word on the IC50: it is the concentration needed to halve the response being measured.

T2 sequence (P10443 whole entry, the tested form may be a part): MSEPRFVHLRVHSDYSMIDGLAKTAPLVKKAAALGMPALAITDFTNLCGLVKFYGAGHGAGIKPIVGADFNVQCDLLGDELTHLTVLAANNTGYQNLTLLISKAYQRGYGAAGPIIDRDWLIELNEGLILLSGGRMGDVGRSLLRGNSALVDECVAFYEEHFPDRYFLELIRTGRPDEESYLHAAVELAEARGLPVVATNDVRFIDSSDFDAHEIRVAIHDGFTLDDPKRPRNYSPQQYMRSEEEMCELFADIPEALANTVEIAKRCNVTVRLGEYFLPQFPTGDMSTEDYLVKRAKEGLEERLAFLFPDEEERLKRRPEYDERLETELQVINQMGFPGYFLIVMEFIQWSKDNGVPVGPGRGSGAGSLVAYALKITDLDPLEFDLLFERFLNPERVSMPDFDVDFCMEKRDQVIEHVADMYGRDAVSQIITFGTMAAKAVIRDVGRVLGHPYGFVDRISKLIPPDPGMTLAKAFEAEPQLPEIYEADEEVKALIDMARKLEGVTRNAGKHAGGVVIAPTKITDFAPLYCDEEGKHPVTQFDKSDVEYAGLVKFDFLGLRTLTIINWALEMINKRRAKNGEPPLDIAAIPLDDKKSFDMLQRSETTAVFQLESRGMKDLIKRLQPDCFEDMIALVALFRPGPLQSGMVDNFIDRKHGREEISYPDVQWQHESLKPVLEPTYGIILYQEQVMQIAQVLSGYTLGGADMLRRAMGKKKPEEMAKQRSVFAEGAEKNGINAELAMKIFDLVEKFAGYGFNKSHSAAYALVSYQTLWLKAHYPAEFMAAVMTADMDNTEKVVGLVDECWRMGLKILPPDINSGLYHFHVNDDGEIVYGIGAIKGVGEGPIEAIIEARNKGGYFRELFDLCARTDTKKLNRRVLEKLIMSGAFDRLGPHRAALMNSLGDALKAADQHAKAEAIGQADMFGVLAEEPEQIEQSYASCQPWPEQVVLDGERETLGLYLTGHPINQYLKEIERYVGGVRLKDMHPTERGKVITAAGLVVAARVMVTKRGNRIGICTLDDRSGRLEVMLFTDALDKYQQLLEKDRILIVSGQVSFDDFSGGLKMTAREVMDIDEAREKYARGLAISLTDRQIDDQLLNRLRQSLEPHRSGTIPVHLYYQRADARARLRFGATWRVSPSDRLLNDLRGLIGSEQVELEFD

Take `CO[C@H]1C[C@H]2C=CC3C4[C@H](O)[C@@H](C)[C@@H](OC(=O)c5ccc[nH]5)[C@@H]3O[C@]42/C(C)=C/[C@@H](C)[C@@H]([C@@H](C)OC(=O)C(=O)OCCCN(C)C)OC1=O.O=C(O)C(F)(F)F` [Example 206]: the MIC in test [1] is 64 µg/mL; in test [2], 4 µg/mL; in test [5], greater than 128 µg/mL; in test [6], 4 µg/mL. Besides, the figures for the IC50 in test [3] (S. aureus DnaE IC50) and in test [4] (setting [7]) were less than 7.63 nM and 1.91 µM, respectively.

For `CO[C@H]1C[C@H]2[C@@H](O)C[C@H]3[C@H]4O[C@]2(/C(C)=C/[C@@H](C)[C@@H]([C@@H](C)O)OC1=O)[C@@H]3[C@H](O)[C@@H](C)[C@H]4OC(=O)c1ccc[nH]1` [Example 193], the MIC in test [1] is greater than 128 µg/mL; in test [2], 64 µg/mL (≈ 120 µM); in test [5], greater than 128 µg/mL; in test [6], greater than 128 µg/mL. In addition, the IC50 in test [3] (S. aureus DnaE IC50) was 1870 nM; in test [4] (setting [7]) it was greater than 187 µM.

As for `CO[C@H]1C[C@H]2C=C[C@H]3[C@H]4O[C@]2(/C(C)=C/[C@@H](C)[C@@H]([C@@H](C)OC(=O)NCCc2ccccc2)OC1=O)[C@@H]3[C@H](O)[C@@H](C)[C@H]4OC(=O)c1ccc[nH]1` [Example 8], the MIC in test [1], in test [2], in test [5] and in test [6] was greater than 128 µg/mL each time. Also, the IC50 in test [3] (S. aureus DnaE IC50) was 67.9 nM; in test [4] (setting [7]), 45.3 µM.

As for `CO[C@H]1C[C@H]2C=C[C@H]3[C@H]4O[C@]2(/C(C)=C/[C@@H](C)[C@H](c2ccccc2)OC1=O)[C@@H]3[C@H](O)[C@@H](C)[C@H]4OC(=O)c1ccc[nH]1` [Example 52], the MIC in test [1], in test [2], in test [5] and in test [6] was greater than 128 µg/mL each time. Further, the IC50 is 1100 nM in test [3] (S. aureus DnaE IC50) and 73 µM in test [4] (setting [7]).

In the case of `CO[C@H]1CC2C=C[C@H]3[C@H]4O[C@]2(/C(C)=C/[C@@H](C)[C@@H](C(C)NC2CC2)OC1=O)[C@@H]3[C@H](O)[C@@H](C)[C@H]4OC(=O)c1ccc[nH]1` (stereo partly drawn) [Example 185], the MIC in test [1], in test [2], in test [5] and in test [6] was greater than 128 µg/mL in each case. For the same compound, the IC50 is less than 10.8 nM in test [3] (S. aureus DnaE IC50) and greater than 180 µM in test [4] (setting [7]).

Consider `CO[C@H]1C[C@H]2C=CC3C4[C@H](O)[C@@H](C)[C@@H](OC(=O)c5ccc[nH]5)[C@@H]3O[C@]42/C(C)=C/[C@@H](C)C([C@@H](C)O)NC1=O` (stereo partly drawn) [Example 170], for which the MIC in test [1] is greater than 128 µg/mL; in test [2] it was 128 µg/mL (≈ 249 µM); in test [5], greater than 128 µg/mL; in test [6], greater than 128 µg/mL. The figures for the IC50 in test [3] (S. aureus DnaE IC50) and in test [4] (setting [7]) were 2530 nM and greater than 194 µM, respectively.

As to `CO[C@H]1C[C@H]2C=C[C@H]3[C@H]4O[C@]2(/C(C)=C/[C@@H](C)[C@@H]([C@@H](C)OC(N)=O)OC1=O)[C@@H]3[C@H](OC(N)=O)[C@@H](C)[C@H]4OC(=O)c1ccc[nH]1` [Example 4], the MIC in test [1], in test [2], in test [5] and in test [6] was greater than 128 µg/mL each time. In addition, the IC50 in test [3] (S. aureus DnaE IC50) was 1160 nM; in test [4] (setting [7]) it was greater than 166 µM.

`CO[C@H]1C[C@H]2C=C[C@H]3[C@H]4O[C@]2(/C(C)=C/[C@@H](C)[C@@H]([C@@H](C)O)OC1=O)[C@@H]3[C@H](O)[C@@H](C)[C@H]4OC(=O)c1cccn1C(C)=O` [Example 203]: the MIC in test [1] was 16 µg/mL (≈ 28.7 µM); in test [2], less than 0.125 µg/mL; in test [5] it was 128 µg/mL (≈ 230 µM); in test [6], less than 0.125 µg/mL. The IC50 in test [3] (S. aureus DnaE IC50) is less than 10.8 nM; in test [4] (setting [7]), 11.7 µM.

For `CO[C@H]1C[C@H]2C=C[C@H]3[C@H]4O[C@]2(/C(C)=C/[C@@H](C)[C@@H]([C@@H](C)O)OC1=O)[C@@H]3[C@H](O)[C@@H](C)[C@H]4OC(=O)c1cccn1C` [Example 196], the MIC in test [1] is greater than 128 µg/mL; in test [2], 64 µg/mL (≈ 121 µM); in test [5], 128 µg/mL (≈ 242 µM); in test [6], greater than 128 µg/mL. The 50% inhibitory concentration (IC50) was 9820 nM in test [3] (S. aureus DnaE IC50) and greater than 189 µM in test [4] (setting [7]).

For `CO[C@H]1CC2C=C[C@H]3[C@H]4O[C@]2(/C(C)=C/[C@@H](C)[C@@H]([C@@H](C)OC(=O)NCC(N)=O)OC1=O)[C@@H]3[C@H](O)[C@@H](C)[C@H]4OC(=O)c1ccc[nH]1` (stereo partly drawn) [Example 16], the MIC is 128 µg/mL (≈ 208 µM) in test [1], 4 µg/mL (≈ 6.5 µM) in test [2], greater than 128 µg/mL in test [5] and 32 µg/mL in test [6]. In addition, the figures for the IC50 in test [3] (read-out: S. aureus DnaE IC50 (converted)) and in test [4] (E. coli DnaE IC50) were less than 9.75 nM and 97.5 µM, respectively.

Consider `CO[C@H]1C[C@H]2C=C[C@H]3[C@H]4O[C@]2(/C(C)=C/[C@@H](C)[C@@H]([C@@H](C)OC(=O)OCC(CO)CO)OC1=O)[C@@H]3[C@H](O)[C@@H](C)[C@H]4OC(=O)c1ccc[nH]1` [Example 36], for which the MIC in test [1] is 64 µg/mL (≈ 98.8 µM); in test [2], 2 µg/mL (≈ 3.09 µM); in test [5], greater than 128 µg/mL; in test [6] it was 2 µg/mL. Moreover, the results for the IC50 in test [3] (S. aureus DnaE IC50) and in test [4] (setting [7]) were less than 9.26 nM and 17 µM, respectively.

For the compound `CO[C@H]1C[C@H]2C=C[C@H]3[C@H]4O[C@]2(/C(C)=C/[C@@H](C)[C@@H]([C@@H](C)O)OC1=O)[C@@H]3[C@H](O)C(C)[C@H]4C#N` (stereo partly drawn) [Example 188, (3R,4S,7S,8aS,10aR,11R,12S,14R,14aS,14bS,E)-14-hydroxy-4-((R)-1-hydroxyethyl)-7-methoxy-1,3,13-trimethyl-6-oxo-3,4,6,7,8,8a,10a,11,12,13,14,14a-dodecahydro-11,14b-epoxynaphtho[2,1-e]oxecine-12-carbonitrile], the MIC came out at 64 µg/mL (≈ 148 µM) in test [1], 32 µg/mL (≈ 74.2 µM) in test [2], 128 µg/mL (≈ 297 µM) in test [5] and 128 µg/mL in test [6]. In addition, the results for the IC50 in test [3] (S. aureus DnaE IC50) and in test [4] (setting [7]) were 232 nM and greater than 232 µM, respectively.

For the compound `CO[C@H]1C[C@H]2C=C[C@H]3[C@H]4O[C@]2(/C(C)=C/[C@@H](C)[C@@H]([C@@H](C)OC(=O)OCC(C)(N)CO)OC1=O)[C@@H]3[C@H](O)[C@@H](C)[C@H]4OC(=O)c1ccc[nH]1.O=C(O)C(F)(F)F` (stereo partly drawn) [Example 28], the MIC in test [1] was found to be 32 µg/mL; in test [2], 2 µg/mL; in test [5] it was 128 µg/mL; in test [6] it was 2 µg/mL. In addition, the figures for the IC50 in test [3] (S. aureus DnaE IC50) and in test [4] (setting [7]) were roughly 6.57 nM and greater than 131 µM, respectively.

With `CO[C@H]1C[C@H]2C=C[C@H]3[C@H]4O[C@]2(/C(C)=C/[C@@H](C)[C@@H]([C@@H](C)OC(=O)NCc2ccncc2)OC1=O)[C@@H]3[C@H](O)[C@@H](C)[C@H]4OC(=O)c1ccc[nH]1` [Example 11], the MIC in test [1] is greater than 128 µg/mL; in test [2] it was 16 µg/mL (≈ 24.6 µM); in test [5], greater than 128 µg/mL; in test [6] it was 32 µg/mL. Further, the half-maximal inhibitory concentration (IC50) is 29.2 nM in test [3] (S. aureus DnaE IC50) and 123 µM in test [4] (setting [7]).

These data come from patent US9944654B2, “Nargenicin compounds and uses thereof as antibacterial agents” (priority 2014, dated 2018).
